A word on the CC50: it is the concentration that lowers cell viability or growth by half. As usually defined, the EC50 is the concentration giving half of the maximal effect. Higher therefore signals weaker potency.

Results on 17 molecules are retold here after patent publication US12448388B2, “PRMT5 inhibitors and uses thereof” (Gilead Sciences, Inc., priority 2023, dated 2025).

The subject of assay [1] is HCT116 MTAP-deleted cell lines. Briefly: Cell viability assay (CellTiter-Glo, 7 days), HCT116 MTAP-deleted. In kind it is cell-based. The following applies: Homo sapiens, HCT-116, HCT116 MTAP-deleted, class symbols, read-out: CC50. In short, it runs like this: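 CC50 values come from 7-day CellTiter-Glo viability measurements on cells exposed to a dose range of PRMT5 inhibitors dispensed from DMSO stocks.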
In general terms: Cellular ATP, detected with luciferase, serves as a proxy for viable cell number.

The subject of assay [2] is Symmetric Di-methyl Arginine (SDMA) signal (PRMT5 inhibition) in HCT116 MTAP-deleted cells. Put plainly: Symmetric di-methyl arginine image-based high content screen assay (SDMA assay), HCT116 MTAP-deleted. In kind it is cell-based. The following applies: for EC50: Homo sapiens, HCT-116, HCT116 MTAP-deleted, class symbols. A digest of the protocol:
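HCT116 WT and MTAP-deleted cells (800/well, RPMI 1640 + 10% FBS) treated with compound 3 days at 37 °C; formalin-fixed, stained with anti-SDMA antibody/Alexa 488 plus DAPI. Mean SDMA intensity per DAPI-defined cell imaged; EC50 from 4-parameter logistic fit.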

Where [3] appears, read: HCT116 WT vs HCT116 MTAP-deleted.
[4] abbreviates: HCT116 WT versus HCT116 MTAP-deleted.

The structures appear in SMILES notation. Where two headings read alike, the source gives them in different places. Where only a bound is given, the exact number is not on record here.

For `Cc1ncn2c(N)nc3ccc(C(=O)N(Cc4ccc(C(F)(F)F)cn4)[C@H](C)c4ncccn4)cc3c12` [Fg-2, (R)-5-amino-1-methyl-N-(1-(pyrimidin-2-yl)ethyl)-N-((5-(trifluoromethyl)pyridin-2-yl)methyl)imidazo[1,5-c]quinazoline-9-carboxamide], in assay [1] (cell viability assay), the CC50 was less than 100 nM. The molecule further came in with an EC50 selectivity in assay [2] (setting [3]) of 39. The concentration giving a half-maximal response (EC50) in assay [2] was in the range of 1 to 5 nM.

In the case of `Cc1ncn2c1c(N)nc1cnc(C(=O)N3CCC4(CC4)[C@@H]4Oc5cc(C(F)(F)F)ccc5[C@@H]43)cc12` [Ff-678, (4-amino-3-methylimidazo[1,5-a]pyrido[3,4-e]pyrazin-8-yl)((4aS,9bS)-7-(trifluoromethyl)-2,3,4a,9b-tetrahydro-1H-spiro[benzofuro[3,2-b]pyridine-4,1′-cyclopropan]-1-yl)methanone], in assay [1] (cell viability assay), the CC50 is less than 100 nM. This molecule also gave an EC50 selectivity in assay [2] (setting [3]) of 263. In assay [2], this molecule came in with a half-maximal effective concentration (EC50) of 1 to 5 nM.

For the molecule `Nc1nc2cc(F)c(C(=O)N3CCC4(CCCc5ccccc54)C3)cc2n2cncc12` (stereo not drawn) [Ff-669, (4-amino-7-fluoroimidazo[1,5-a]quinoxalin-8-yl)(3,4-dihydro-2H-spiro[naphthalene-1,3′-pyrrolidin]-1′-yl)methanone], the CC50 in assay [1] (cell viability assay) is 100 to 1000 nM. For the same molecule, the EC50 selectivity in assay [2] (setting [3]) worked out at 485. For the same molecule, the concentration for a half-maximal effect (EC50) in assay [2] was 1 to 5 nM.

In the case of `[2H]C1([2H])C[C@H]2C[C@H](c3ccc(C(F)(F)F)cc3O2)N1C(=O)c1cc2c(cc1F)nc(N)c1cncn12` [Ff-637, (4-amino-7-fluoroimidazo[1,5-a]quinoxalin-8-yl)((2S,6R)-9-(trifluoromethyl)-3,4-dihydro-2H-2,6-methanobenzo[b][1,5]oxazocin-5(6H)-yl-4,4-d2)methanone], the CC50 in assay [1] (cell viability assay) is less than 100 nM. The same molecule came in with an EC50 selectivity in assay [2] (setting [3]) of 182. The molecule also came in with a concentration for a half-maximal effect (EC50) in assay [2] of no more than 1 nM.

Regarding `Nc1nc2ccc(C(=O)N(Cc3cc4ccccn4n3)C34CC(C3)C4)cc2c2cncn12` [Fg-16, 5-amino-N-(bicyclo[1.1.1]pentan-1-yl)-N-(pyrazolo[1,5-a]pyridin-2-ylmethyl)imidazo[1,5-c]quinazoline-9-carboxamide], in assay [1] (cell viability assay), the CC50 was greater than 1000 nM. For the same molecule, in assay [2] (setting [3]), the EC50 selectivity was found to be 6. For the same molecule, the concentration for a half-maximal effect (EC50) in assay [2] is greater than 5 nM.

As to `CN(Cc1ccc(Cl)cc1C#N)C(=O)c1cc2c(cc1F)nc(N)c1cncn12` [Ff-32, 4-amino-N-(4-chloro-2-cyanobenzyl)-7-fluoro-N-methylimidazo[1,5-a]quinoxaline-8-carboxamide], the CC50 in assay [1] (cell viability) was 100 to 1000 nM. In assay [2] (setting [4]), this molecule gave an EC50 selectivity of 346. The molecule further showed an EC50 in assay [2] of 1 to 5 nM.

For `Nc1nc2cc(F)c(C(=O)N3CCO[C@@H]4Cc5cc(Br)ccc5[C@@H]43)cc2n2cncc12` (racemic) [Ff-28, Racemic(4-amino-7-fluoroimidazo[1,5-a]quinoxalin-8-yl)((4aS,9aR)-7-bromo-2,3,9,9a-tetrahydroindeno[2,1-b][1,4]oxazin-4(4aH)-yl)methanone], in assay [1] (cell viability), the CC50 is less than 100 nM. In assay [2] (setting [4]), this molecule returned an EC50 selectivity of 256. In assay [2], this molecule had an EC50 of 1 to 5 nM.

With `CC(=O)N(C)N(Cc1ccc(Cl)cc1C#N)C(=O)c1ccc2nc(N)c3c(C)ncn3c2c1` [Fa-6, N′-acetyl-4-amino-N-(4-chloro-2-cyanobenzyl)-N′,3-dimethylimidazo[1,5-a]quinoxaline-8-carbohydrazide], the CC50 in assay [1] (cell viability) is less than 100 nM. In assay [2] (setting [4]), this molecule gave an EC50 selectivity of 129. The concentration giving a half-maximal response (EC50) in assay [2] was in the range of 1 to 5 nM.

In the case of `CCN(C(=O)c1ccc2nc(N)c3cncn3c2c1)[C@@H]1COc2cc(C(F)(F)F)ccc21` [Ff-8, (S)-4-amino-N-ethyl-N-(6-(trifluoromethyl)-2,3-dihydrobenzofuran-3-yl)imidazo[1,5-a]quinoxaline-8-carboxamide], the 50% cytotoxic concentration (CC50) in assay [1] (cell viability) was less than 100 nM. Further, the EC50 selectivity in assay [2] (setting [4]) came out at 299. In addition, the half-maximal effective concentration (EC50) in assay [2] is no more than 1 nM.

For `Cc1ncn2c1c(N)nc1cnc(C(=O)N3C[C@@H](F)C[C@@H]4Oc5cc(C(F)(F)F)ccc5[C@@H]43)cc12` [Ff-658, (4-amino-3-methylimidazo[1,5-a]pyrido[3,4-e]pyrazin-8-yl)((3S,4aS,9bS)-3-fluoro-7-(trifluoromethyl)-3,4,4a,9b-tetrahydrobenzofuro[3,2-b]pyridin-1(2H)-yl)methanone], the 50% cytotoxic concentration (CC50) in assay [1] (cell viability assay) is less than 100 nM. For the same molecule, the EC50 selectivity in assay [2] (setting [3]) was determined as 124. This molecule registered an EC50 in assay [2] of 1 to 5 nM.

Take `Cc1ncc2c(N)nc3ccc(C(=O)N4C[C@@H](F)C[C@@H]5Oc6cc(C(F)(F)F)ccc6[C@@H]54)cc3n12` [Ff-660, (4-amino-1-methylimidazo[1,5-a]quinoxalin-8-yl)((3S,4aS,9bS)-3-fluoro-7-(trifluoromethyl)-3,4,4a,9b-tetrahydrobenzofuro[3,2-b]pyridin-1(2H)-yl)methanone]: in assay [1] (cell viability assay), the CC50 is less than 100 nM. Besides, the EC50 selectivity in assay [2] (setting [3]) worked out at 122. The concentration for a half-maximal effect (EC50) in assay [2] was no more than 1 nM.

Turning to `CN(C(=O)c1ccc2nc(N)c3cncn3c2c1)[C@@H]1COc2cc(Cl)ccc21` [Ff-566, (S)-4-amino-N-(6-chloro-2,3-dihydrobenzofuran-3-yl)-N-methylimidazo[1,5-a]quinoxaline-8-carboxamide], the CC50 in assay [1] (cell viability assay) is 100 to 1000 nM. The EC50 selectivity in assay [2] (setting [3]) is recorded as 497. For the same molecule, the EC50 in assay [2] was in the range of 1 to 5 nM.

With `CN(Cc1cccc2ccoc12)C(=O)c1ccc2nc(N)c3cncn3c2c1` [Ff-5, 4-amino-N-(benzofuran-7-ylmethyl)-N-methylimidazo[1,5-a]quinoxaline-8-carboxamide], the CC50 in assay [1] (cell viability) is greater than 1000 nM. The molecule also yielded an EC50 selectivity in assay [2] (setting [4]) of 334. In assay [2], this molecule registered an EC50 greater than 5 nM.

For the molecule `Cc1ncn2c(N)nc3cc(F)c(C(=O)N(Cc4ccc(C(F)(F)F)cn4)[C@H](C)c4ncccn4)cc3c12` [Ff-54, (R)-5-amino-8-fluoro-1-methyl-N-(1-(pyrimidin-2-yl)ethyl)-N-((5-(trifluoromethyl)pyridin-2-yl)methyl)imidazo[1,5-c]quinazoline-9-carboxamide], the cytotoxic concentration (CC50) in assay [1] (cell viability) was less than 100 nM. The molecule also registered an EC50 selectivity in assay [2] (setting [4]) of 95. The EC50 in assay [2] lay within 1 to 5 nM.

On to `Cc1ncn2c1c(N)nc1cnc(C(=O)N3CCC[C@@H]4Oc5cc(S(F)(F)(F)(F)F)ccc5[C@@H]43)cc12` [Ff-665, (4-amino-3-methylimidazo[1,5-a]pyrido[3,4-e]pyrazin-8-yl)((4aS,9bS)-7-(pentafluoro-16-sulfaneyl)-3,4,4a,9b-tetrahydrobenzofuro[3,2-b]pyridin-1(2H)-yl)methanone], for which the CC50 in assay [1] (cell viability assay) was less than 100 nM. The molecule also returned an EC50 selectivity in assay [2] (setting [3]) of 39. In assay [2], this molecule came in with an EC50 of no more than 1 nM.

On to `CN(C(=O)c1cc2c(cc1F)nc(N)c1cncn12)C1CCc2nc(C(F)(F)F)ccc21` (stereo not drawn) [Ff-13, 4-amino-7-fluoro-N-methyl-N-(2-(trifluoromethyl)-6,7-dihydro-5H-cyclopenta[b]pyridin-5-yl)imidazo[1,5-a]quinoxaline-8-carboxamide], for which the half-maximal cytotoxic concentration (CC50) in assay [1] (cell viability) was less than 100 nM. This molecule displayed an EC50 selectivity in assay [2] (setting [4]) of 176. Besides, in assay [2], the EC50 is no more than 1 nM.

Consider `Cc1cn(-c2ccc3c(c2)OC[C@H]3N(C)C(=O)c2cc3c(cc2F)nc(N)c2cncn23)cn1` [Ff-544, (S)-4-amino-7-fluoro-N-methyl-N-(6-(4-methyl-1H-imidazol-1-yl)-2,3-dihydrobenzofuran-3-yl)imidazo[1,5-a]quinoxaline-8-carboxamide], for which the CC50 in assay [1] (cell viability assay) is less than 100 nM. Besides, the EC50 selectivity in assay [2] (setting [3]) is given as 109. Also, the concentration for a half-maximal effect (EC50) in assay [2] was 1 to 5 nM.
